Experimental data: patent US9410956B1, “Micro-RNA profiling in ovarian cancer” (University of South Florida, priority 2008, dated 2016)

Tests used:
ovarian cancer = settings: adjuvant chemotherapy, ovarian cancer patients (Aghajanian 2004); cited from earlier work
PTEN [1] = settings: ovarian cancer cell lines (Schondorf et al. 2004); cited from earlier work
PTEN [2] = assay: Immunoblot of PTEN protein after knockdown of miR-214 in A2780CP cells; assay type: cell-based, human; settings: 72 h
Description: (§1) FIG. 2B: An image showing miR-214 reduces PTEN protein but not mRNA levels. HIOSE-80 cells (left panels) were transfected with pcDNA3.1/V5-His-Topo-miR-214, -miR199a* and vector alone and immunoblotted with indicated antibodies (panels 1-4). The expression of miR-214 and miR-199a* was determined by qRT-PCR (panels 5 and 6). PTEN mRNA level was measured by RT-PCR (panel 8). U6 (panel 7) and GAPDH (bottom panel) were used for controls. Middle and right panels show knockdown of miR-214 inducing PTEN expression. A2780CP cells were transfected with antisense 2′-O-methyl oligonucleotide targeting miR-214 at concentration of […] (6 well plate) with Lipofectamine 2000. Anti-miR199a* and scramble 2′-O-methyl oligonucleotide were used as controls. After incubation of 72 h, cells were lysed and immunoblotted with indicated antibodies (middle).
(§2) 2′-O-methyl (2′-O-me) oligoribonucleotides were synthesized by Integrated DNA Technologies. The sequences of 2′-O-methyl-anti-miR-214 and -miR-199a* are: 5′-[…]-3′ (SEQ ID NO: 1) and 5′-[…] UGUA-3′ (SEQ ID NO: 3). 2′-O-me-scrambled miR (5′-[…]-3′) (SEQ ID NO: 15) was used as a control. Cells were grown in 6-well plate (1.7×10^6 cells/well) for 24 h and transfected with 150 pMol of 2′-O-me oligoribonucleotides per well using Lipofectamine 2000. RNA and protein were extracted after 72 h transfection. […]

A2780CP cells [3] = assay: Cisplatin-induced apoptosis after knockdown of miR-214 (MTT, subG1 flow cytometry); assay type: cell-based, human; settings: 20 uM cisplatin
Description: (§3) FIG. 4B: An image showing an MTT assay. The 2′-O-me-anti-miR-214- or scramble 2′-O-me-transfected A2780CP cells were treated with 20 uM of cisplatin or DMSO vehicle for the indicated times and examined for cell viability.
FIG. 4C: An image showing flow cytometry. Indicated cells were treated with cisplatin or DMSO for 12 h and the subG1 population was identified by flow cytometry.
(§4) A2780CP cells were transfected with 2′-O-methyl-anti-miR-214. The cells transfected with 2′-O-methyl-scramble-miR were used as control. […] Further, the cells were treated with cisplatin or vehicle DMSO.

A2780CP cells [4] = assay: MTT cell viability assay after knockdown of miR-214; assay type: cell-based, human; settings: knockdown of miR-214 alone, 150 pMol oligonucleotide per well
Description: as §3
2′-O-methyl (2′-O-me) oligoribonucleotides were synthesized by Integrated DNA Technologies. The sequences of 2′-O-methyl-anti-miR-214 and -miR-199a* are: 5′-[…]-3′ (SEQ ID NO: 1) and 5′-[…] UGUA-3′ (SEQ ID NO: 3). 2′-O-me-scrambled miR (5′-[…]-3′) (SEQ ID NO: 15) was used as a control. Cells were grown in 6-well plate (1.7×10^6 cells/well) for 24 h and transfected with 150 pMol of 2′-O-me oligoribonucleotides per well using Lipofectamine 2000. RNA and protein were extracted after 72 h transfection.
as §4

Akt = assay: Immunoblot of phospho-Akt and Akt substrates after knockdown of miR-214 in A2780CP cells; assay type: cell-based, human; settings: 72 h
Description: as §1, §2

miR-214 = assay: qRT-PCR of miR-214 level after 2′-O-methyl oligonucleotide transfection; assay type: cell-based, human; settings: A2780CP cells, 72 h after transfection
Description: FIG. 4A: An image showing A2780CP, a cisplatin-resistant cell line and expressing elevated levels of endogenous miR-214, was transfected with 2′-O-me-anti-miR-214 or scramble 2′-O-me oligonucleotides and assayed with qRT-PCR with primers of miR-214 (top) and U6 (bottom).
Expression of miRNAs was also analyzed by RNase protection or mirVana qRT-PCR miRNA detection assay. For RNase protection assay, enriched small RNA was purified using the miRVana miRNA Isolation Kit (Ambion). The mirVana™ miRNA probe construction kit (Ambion) was used to synthesize the ^32P-labeled miR-214 probe. Probe hybridization and RNase protection were then carried out using the mirVana™ miRNA detection kit (Ambion) according to manufacturer's instructions. After hybridization and RNase treatment, the double-strand products were resolved in a 15% polyacrylamide 8 M urea denaturing gel and visualized using phosphoimaging and autoradiography. mirVana qRT-PCR was performed according to the manufacturer's protocol (Ambion). PCR products were analyzed by electrophoresis on a 7.5% polyacrylamide gel in 0.5×TBE and visualized by ethidium bromide staining.
2′-O-methyl (2′-O-me) oligoribonucleotides were synthesized by Integrated DNA Technologies. The sequences of 2′-O-methyl-anti-miR-214 and -miR-199a* are: 5′-[…]-3′ (SEQ ID NO: 1) and 5′-[…] UGUA-3′ (SEQ ID NO: 3). […]

Compound: N.N.[Cl][Pt][Cl] [cisplatin]
- clinical response (share of patients) (ovarian cancer): approximately 80%

Compound: Nc1ncn([C@H]2C[C@H](O)[C@@H](CO)O2)c(=O)n1 [5-aza-2′ deoxycytidine]
- PTEN protein expression (PTEN [1]): failed to restore

Compound: 5′-CUGCCUGUCUGUGCCUGCUGU-3′ (all 2'-O-methyl, backbone not given here) [2′-O-methyl-anti-miR-214, antisense 2′-O-methyl oligoribonucleotide targeting miR-214]
- protein level of PTEN (PTEN [2]): increased
- sensitization to cisplatin-induced apoptosis (A2780CP cells [3]): considerably sensitized
- reduction of cell survival (A2780CP cells [4]): about 20%
- phosphorylation levels of Akt and Akt substrates GSK3β and p70S6K (Akt): decreased
- level of miR-214 (miR-214): significantly decreased
